# Assay results as given in patent publication US20080318938A1, “METHODS FOR TREATING ABERRANT CELL PROLIFERATION DISORDERS” (priority 2007, published 2008).
# Key:
# UO-31 = assay: Inhibition of cell proliferation (MTT); type: cell-based; details: Homo sapiens; UO-31, Renal; 48 hours
# Description: (§1) Inhibition of cell proliferation is determined in human tumor cell lines. Innoculation density and doubling times for specific cell lines are listed at World Wide Web URL “dtp.nci.nih.gov/docs/misc/common_files/cell_list.html.”
# (§2) • 1. Plate adherent cells the day before starting the experiment in 180 μl growth media (see list hereafter). • 2. Day of experiment, count and plate suspension cells in 180 μl growth media (see list on next page). • 3. Make 10× Compound, vehicle, and chemotherapeutic cocktail • a. Compound (1× to 10×) • i. 10 μM Compound to 100 μM • ii. 3 μM Compound to 30 μM • iii. 1 μM Compound to 10 μM • iv. 0.3 μM Compound to 3 μM • v. 0.1 μM Compound to 1 μM • b. Vehicle • i. PBS, equivalent to the volume used for 10 μM Compound (1× is ˜0.06% PBS) • c. Chemotherapeutic cocktail (1× to 10×): • i. 1 μM Velcade to 10 μM • ii. 100 μM Etoposide to 1 mM • iii. 20 μM Taxol to 200 μM • 4. Add 20 μl of the 10× compound/vehicle/chemotherapeutic cocktail to cells. • 5. Incubate at 37° C., 5% CO2 for 48 hours. • 6. Aspirate media. For suspension cells, spin plate at 1500 RPM for 10 minutes. Use a multichannel pipettor to slowly remove media. • 7. Add 200 μl of Thiazolyl Blue Tetrazolium Bromide (MTT) to each well: 0.863 mg/ml MTT in growth media.
# (§3) Proliferation of several cancer cells was inhibited by compound TA1-1B (which is a particular mixture of the isomers represented by TA1-1A), as shown in the following table (Table 1). The value EC50 is the amount of Compound TA1-1B that results in 50% inhibition of proliferation of the indicated cell type.
# UACC-62 = assay: Inhibition of cell proliferation (MTT); type: cell-based; details: Homo sapiens; UACC-62, Melanoma; 48 hours
# Description: as §1, §2, §3
# THP-1 = assay: Inhibition of cell proliferation (MTT); type: cell-based; details: Homo sapiens; THP-1, Leukemia; 48 hours
# Description: as §1, §2, §3
# P116 = assay: Inhibition of cell proliferation (MTT); type: cell-based; details: Homo sapiens; P116, Leukemia; 48 hours
# Description: as §1, §2, §3
# D1-1 = assay: Inhibition of cell proliferation (MTT); type: cell-based; details: Homo sapiens; D1-1, Leukemia; 48 hours
# Description: as §1, §2, §3
# Hut78 = assay: Inhibition of cell proliferation (MTT); type: cell-based; details: Homo sapiens; Hut78, Lymphoma; 48 hours
# Description: as §1, §2, §3
# MEG-01 = assay: Inhibition of cell proliferation (MTT); type: cell-based; details: Homo sapiens; MEG-01, Leukemia; 48 hours
# Description: as §1, §2, §3
# T-47D = assay: Inhibition of cell proliferation (MTT); type: cell-based; details: Homo sapiens, T47D, Breast, 48 hours
# Description: as §1, §2, §3
# SF-268 = assay: Inhibition of cell proliferation (MTT); type: cell-based; details: Homo sapiens; SF-268, CNS; 48 hours
# Description: as §1, §2, §3
# DOHH2 = assay: Inhibition of cell proliferation (MTT); type: cell-based; details: Homo sapiens, DOHH-2; DOHH2, Lymphoma; 48 hours
# Description: as §1, §2, §3
# OVCAR-5 = assay: Inhibition of cell proliferation (MTT); type: cell-based; details: Homo sapiens; OVCAR-5, Ovarian; 48 hours
# Description: as §1, §2, §3
# SNB-75 = assay: Inhibition of cell proliferation (MTT); type: cell-based; details: Homo sapiens; SNB-75, CNS; 48 hours
# Description: as §1, §2, §3
# HH = assay: Inhibition of cell proliferation (MTT); type: cell-based; details: Homo sapiens, Lymphoma, 48 hours
# Description: as §1, §2, §3
# COLO 205 = assay: Inhibition of cell proliferation (MTT); type: cell-based; details: Homo sapiens; COLO 205, Colon; 48 hours
# Description: as §1, §2, §3
# SF-539 = assay: Inhibition of cell proliferation (MTT); type: cell-based; details: Homo sapiens; SF-539, CNS; 48 hours
# Description: as §1, §2, §3
# [1] = target: CCKB/CCK2 Cholecystokinin receptor (Homo sapiens, UniProt P32239); assay: Receptor binding
# CCKB/CCK2 Cholecystokinin receptor, sequence (P32239 whole entry): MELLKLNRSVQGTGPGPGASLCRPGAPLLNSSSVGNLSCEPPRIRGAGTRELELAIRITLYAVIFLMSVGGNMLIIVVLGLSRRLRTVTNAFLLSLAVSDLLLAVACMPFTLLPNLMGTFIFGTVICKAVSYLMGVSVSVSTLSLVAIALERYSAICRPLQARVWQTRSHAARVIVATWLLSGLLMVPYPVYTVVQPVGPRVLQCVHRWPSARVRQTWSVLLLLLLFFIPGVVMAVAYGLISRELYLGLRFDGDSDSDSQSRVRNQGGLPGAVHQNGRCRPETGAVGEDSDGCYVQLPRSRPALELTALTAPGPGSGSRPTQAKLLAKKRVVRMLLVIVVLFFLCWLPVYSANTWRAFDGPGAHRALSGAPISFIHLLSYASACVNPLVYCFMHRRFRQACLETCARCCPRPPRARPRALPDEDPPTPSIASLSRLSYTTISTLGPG
# CCK1/CCKA = target: T1, CCK1/CCKA (Homo sapiens, UniProt P32238); assay: Receptor functional assay; type: biochemical
# T1 sequence (P32238 1-428): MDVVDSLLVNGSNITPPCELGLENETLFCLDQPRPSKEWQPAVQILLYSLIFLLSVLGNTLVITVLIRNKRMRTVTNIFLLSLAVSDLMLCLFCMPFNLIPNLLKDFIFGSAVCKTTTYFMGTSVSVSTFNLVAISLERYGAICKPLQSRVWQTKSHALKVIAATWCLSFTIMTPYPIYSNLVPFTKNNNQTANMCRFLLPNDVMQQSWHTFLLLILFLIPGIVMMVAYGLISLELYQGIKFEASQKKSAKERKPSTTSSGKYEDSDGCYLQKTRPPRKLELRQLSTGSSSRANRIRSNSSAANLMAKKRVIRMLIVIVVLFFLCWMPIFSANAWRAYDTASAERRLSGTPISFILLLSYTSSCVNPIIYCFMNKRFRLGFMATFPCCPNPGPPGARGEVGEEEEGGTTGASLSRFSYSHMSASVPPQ
# Description: (§4) The binding IC50, functional effect, and functional EC50 of TA1-1B on exemplary receptors was determined.
# SST1 = SST1 (Homo sapiens, UniProt P30872); assay: Receptor functional assay; type: biochemical
# SST1, sequence (P30872 whole entry, species assumed): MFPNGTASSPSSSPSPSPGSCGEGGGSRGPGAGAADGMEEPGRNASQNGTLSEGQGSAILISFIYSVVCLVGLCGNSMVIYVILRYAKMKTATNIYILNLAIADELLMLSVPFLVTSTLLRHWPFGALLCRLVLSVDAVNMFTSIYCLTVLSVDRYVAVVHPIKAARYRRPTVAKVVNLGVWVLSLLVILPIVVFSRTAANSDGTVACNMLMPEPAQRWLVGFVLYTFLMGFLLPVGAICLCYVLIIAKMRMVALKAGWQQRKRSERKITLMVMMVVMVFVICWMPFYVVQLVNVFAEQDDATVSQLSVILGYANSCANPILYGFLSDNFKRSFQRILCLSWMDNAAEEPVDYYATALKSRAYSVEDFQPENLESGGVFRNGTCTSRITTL
# Description: as §4
# SST5 = SST5 (Homo sapiens, UniProt P35346); assay: Receptor functional assay; type: biochemical
# SST5, sequence (P35346 whole entry, species assumed): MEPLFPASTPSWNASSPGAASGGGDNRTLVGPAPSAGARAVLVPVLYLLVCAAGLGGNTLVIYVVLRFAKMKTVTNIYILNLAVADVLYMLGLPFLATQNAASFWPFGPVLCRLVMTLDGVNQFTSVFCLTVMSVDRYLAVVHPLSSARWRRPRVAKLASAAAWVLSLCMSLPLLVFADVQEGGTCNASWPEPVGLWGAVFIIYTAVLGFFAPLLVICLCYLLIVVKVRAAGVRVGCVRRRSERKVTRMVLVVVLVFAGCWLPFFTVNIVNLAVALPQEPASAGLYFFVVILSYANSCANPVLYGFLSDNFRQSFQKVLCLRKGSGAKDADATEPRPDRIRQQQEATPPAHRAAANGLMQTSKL
# Description: as §4
# SST4 = SST4 (Homo sapiens, UniProt P31391); assay: Receptor functional assay; type: biochemical
# SST4, sequence (P31391 whole entry, species assumed): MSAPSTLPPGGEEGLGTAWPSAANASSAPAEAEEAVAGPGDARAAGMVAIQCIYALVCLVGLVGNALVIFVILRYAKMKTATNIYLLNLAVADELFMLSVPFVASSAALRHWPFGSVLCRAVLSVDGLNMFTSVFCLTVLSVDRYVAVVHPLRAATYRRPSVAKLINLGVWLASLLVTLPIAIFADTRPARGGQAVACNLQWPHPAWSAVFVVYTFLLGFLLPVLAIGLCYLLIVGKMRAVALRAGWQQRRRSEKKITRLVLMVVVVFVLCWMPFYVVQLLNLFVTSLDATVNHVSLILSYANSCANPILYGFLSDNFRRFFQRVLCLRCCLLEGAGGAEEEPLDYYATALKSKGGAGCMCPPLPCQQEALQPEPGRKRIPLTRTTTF
# Description: as §4
structure (smiles),measurement,setting,value
CN1CCC[C@H]1CCNC(=O)c1cn2c3c(c(N4CCC(c5cnccn5)C4)c(F)cc3c1=O)Oc1cc3ccccc3cc1-2 (stereo partly shown) [TA1-1B],EC50,UO-31,2380 nM
same,EC50,UACC-62,4880 nM
same,EC50,THP-1,3180 nM
same,EC50,P116,1230 nM
same,EC50,D1-1,4160 nM
same,EC50,Hut78,3300 nM
same,EC50,MEG-01,6000 nM
same,EC50,T-47D,6560 nM
same,EC50,SF-268,1230 nM
same,EC50,DOHH2,1560 nM
same,EC50,OVCAR-5,2170 nM
same,EC50,SNB-75,2310 nM
same,EC50,HH,4040 nM
same,EC50,COLO 205,707 nM
same,EC50,SF-539,1110 nM
same,inhibition at 1 µM,[1],93%
same,EC50,CCK1/CCKA; antagonist,1600 nM
same,Kb,CCK1/CCKA; antagonist,340 nM
same,Functional Effect,CCK1/CCKA; response noted at 1 μM,Antagonist
same,EC50,SST1; agonist,4300 nM
same,Functional Effect,SST1; response noted at 10 μM,Agonist
same,EC50,SST5; agonist,4700 nM
same,Functional Effect,SST5; response noted at 10 μM,Agonist
same,EC50,SST4; agonist,9900 nM
same,Functional Effect,SST4; response noted at 10 μM,Agonist
